Assays:
[1] = Suspension equilibration of Compound 1 HCl at 20 and 40° C.
Experimental: The purpose of this panel was to determine if Form A evolves into a supra-ordinate form, the companion panel at 40° C. set-point was in place to detect enantiotropic behavior via different relative proportions in different solvents.
All isolated products, both wet and dry were consistent with Form A at both temperatures.

[2] = type: physicochemical
Experimental: Both samples were maintained at 75% RH at 40° C. and monitored by HPLC at time points t=1 h, 3 h, 24 h, 48 h, 7 d, 2 w, 3 w, 4 w and 5 w.
Under the conditions evaluated during this study, XRPD analysis could not be performed as compound 1 Fumarate turned to an oily residue within 3 h under both conditions.
[…] Both samples were maintained under equilibrium humidity of 75% RH at 40° C. and monitored, initially at hourly and then weekly time points.

[3] = Thermocycling of compound 1 Fumarate; details: computed by software from the powder pattern
Experimental: Thermocycling in different solvents can promote the formation of alternative polymorphic forms. compound 1·Fumarate was heated and cooled between 20° C. and 75% of the relevant solvent b.p. at 0.5° C./minute, for 5 consecutive cycles; a 10-minute dwell was incorporated at each inflection (refer to Table 63). Thermocycling is ripening technique that encourages particle size enlargement and promotes the evolution of the API into a stable phase. […] The products were analysed both wet and dry to determine if form changes had occurred, all products were consistent with monofumarate Form A (refer to FIGS. 16-19 and FIGS. 88-102).
Compound 1 Fumarate (75 mg, 1 wt) was weighed out in to 4 separate vials and the corresponding solvents (750 ul, 10 vol) from Table were charged.
The suspensions underwent constant amplitude thermocycling at ±0.5° C./min up to 75% of the relevant solvent b.p. and −0.5° C./min down to 20° C. The thermocycle was repeated 5 times (FIGS. 16-19 and 88-102).

[4] = 2-Propanol 5.0 vol, panel at 40° C.
[5] = Acetone 5.0 vol, equilibration at 20° C.
[6] = Acetone 5.0 vol, panel at 40° C.
[7] = Acetone/Water (5% v/v, 0.5 aw) 5.0 vol, equilibration at 20° C.
[8] = Acetonitrile 5.0 vol, panel at 40° C.
[9] = Chlorobenzene 5.0 vol, equilibration at 20° C.
[10] = Chlorobenzene 5.0 vol, panel at 40° C.
[11] = DCM 5.0 vol, equilibration at 20° C.
[12] = EtOAc 5.0 vol, equilibration at 20° C.
[13] = EtOH 5.0 vol, equilibration at 20° C.
[14] = Ethanol 5.0 vol, panel at 40° C.
[15] = Ethyl acetate 5.0 vol, panel at 40° C.
[16] = Ethyl formate 5.0 vol, equilibration at 20° C.
[17] = Ethyl formate 5.0 vol, panel at 40° C.
[18] = Heptane 5.0 vol, equilibration at 20° C.
[19] = Heptane 5.0 vol, panel at 40° C.
[20] = Isopropanol/Water (12% v/v, 0.5 aw) 5.0 vol, equilibration at 20° C.
[21] = Isopropyl acetate 5.0 vol, equilibration at 20° C.
[22] = Isopropyl acetate 5.0 vol, panel at 40° C.
[23] = MEK 5.0 vol, equilibration at 20° C.
[24] = MeCN 5.0 vol, equilibration at 20° C.
[25] = MeOH 5.0 vol, equilibration at 20° C.
[26] = Methanol 5.0 vol, panel at 40° C.
[27] = Methyl acetate 5.0 vol, equilibration at 20° C.
[28] = Methyl acetate 5.0 vol, panel at 40° C.
[29] = Nitromethane 5.0 vol, panel at 40° C.
[30] = TBME 5.0 vol, equilibration at 20° C.
[31] = Toluene 5.0 vol, panel at 40° C.
[32] = Water 5.0 vol, equilibration at 20° C.
[33] = thermocycling in MEK/Heptane (1 to 1)
[34] = thermocycling in Toluene 100.0%

COc1ccc2c(ccn2C[C@@H](C)N(C)C)c1.Cl [Compound 1 HCl]
Observations (t = 0 @ 20° C.) ([1]; 2-Propanol 5.0 vol, equilibration at 20° C.): Suspension | Observations (t = 0 @ 20° C.) [1, 4]: Suspension | Observations (t = 1 d @ 20° C.) [1, 4]: Suspension | Observations (t = 0 @ 20° C.) [1, 5]: Suspension | Observations (t = 1 d @ 20° C.) [1, 5]: Suspension | Observations (t = 10 d @ 20° C.) [1, 5]: White Paste | Observations (t = 0 @ 20° C.) [1, 6]: Suspension | Observations (t = 1 d @ 20° C.) [1, 6]: Suspension | Observations (t = 10 d @ 20° C.) [1, 6]: Yellow susp. | Observations (t = 0 @ 20° C.) [1, 7]: Suspension | Observations (t = 1 d @ 20° C.) [1, 7]: Suspension | Observations (t = 10 d @ 20° C.) [1, 7]: Pink paste | Observations (t = 0 @ 20° C.) ([1]; Acetone/Water (5% v/v, 0.5 aw) 5.0 vol, panel at 40° C.): Suspension | Observations (t = 0 @ 20° C.) [1, 8]: Suspension | Observations (t = 1 d @ 20° C.) [1, 8]: Suspension | Observations (t = 0 @ 20° C.) [1, 9]: Suspension | Observations (t = 1 d @ 20° C.) [1, 9]: Suspension | Observations (t = 0 @ 20° C.) [1, 10]: Suspension | Observations (t = 1 d @ 20° C.) [1, 10]: Suspension | Observations (t = 0 @ 20° C.) [1, 11]: Suspension | Observations (t = 1 d @ 20° C.) [1, 11]: Suspension | Observations (t = 10 d @ 20° C.) [1, 11]: Pink paste | Observations (t = 0 @ 20° C.) ([1]; DCM 5.0 vol, panel at 40° C.): Suspension | Observations (t = 1 d @ 20° C.) ([1]; DCM 5.0 vol, panel at 40° C.): Suspension | Observations (t = 0 @ 20° C.) [1, 12]: Suspension | Observations (t = 1 d @ 20° C.) [1, 12]: Suspension | Observations (t = 10 d @ 20° C.) [1, 12]: White paste | Observations (t = 0 @ 20° C.) [1, 13]: Suspension | Observations (t = 1 d @ 20° C.) [1, 13]: Suspension | Observations (t = 10 d @ 20° C.) [1, 13]: Pink paste | Observations (t = 0 @ 20° C.) [1, 14]: Suspension | Observations (t = 1 d @ 20° C.) [1, 14]: Suspension | Observations (t = 0 @ 20° C.) ([1]; Ethanol/Water (15% v/v, 0.5 aw) 5.0 vol, equilibration at 20° C.): Suspension | Observations (t = 0 @ 20° C.) [1, 15]: Suspension | Observations (t = 1 d @ 20° C.) [1, 15]: Suspension | Observations (t = 0 @ 20° C.) [1, 16]: Suspension | Observations (t = 1 d @ 20° C.) [1, 16]: Suspension | Observations (t = 0 @ 20° C.) [1, 17]: Suspension | Observations (t = 1 d @ 20° C.) [1, 17]: Suspension | Observations (t = 0 @ 20° C.) [1, 18]: Suspension | Observations (t = 1 d @ 20° C.) [1, 18]: Suspension | Observations (t = 0 @ 20° C.) [1, 19]: Suspension | Observations (t = 1 d @ 20° C.) [1, 19]: Suspension | Observations (t = 0 @ 20° C.) [1, 20]: Suspension | Observations (t = 1 d @ 20° C.) [1, 20]: Partial | Observations (t = 0 @ 20° C.) ([1]; Isopropanol/Water (12% v/v, 0.5 aw) 5.0 vol, panel at 40° C.): Suspension | Observations (t = 0 @ 20° C.) [1, 21]: Suspension | Observations (t = 1 d @ 20° C.) [1, 21]: Suspension | Observations (t = 0 @ 20° C.) [1, 22]: Suspension | Observations (t = 1 d @ 20° C.) [1, 22]: Suspension | Observations (t = 0 @ 20° C.) [1, 23]: Suspension | Observations (t = 1 d @ 20° C.) [1, 23]: Suspension | Observations (t = 0 @ 20° C.) ([1]; MEK 5.0 vol, panel at 40° C.): Suspension | Observations (t = 1 d @ 20° C.) ([1]; MEK 5.0 vol, panel at 40° C.): Suspension | Observations (t = 0 @ 20° C.) [1, 24]: Suspension | Observations (t = 1 d @ 20° C.) [1, 24]: Suspension | Observations (t = 10 d @ 20° C.) [1, 24]: White Paste | Observations (t = 0 @ 20° C.) [1, 25]: Suspension | Observations (t = 1 d @ 20° C.) [1, 25]: Suspension | Observations (t = 0 @ 20° C.) ([1]; MeTHE 5.0 vol, equilibration at 20° C.): Suspension | Observations (t = 0 @ 20° C.) ([1]; MeTHF 5.0 vol, panel at 40° C.): Suspension | Observations (t = 1 d @ 20° C.) ([1]; MeTHF 5.0 vol, panel at 40° C.): Suspension | Observations (t = 0 @ 20° C.) [1, 26]: Suspension | Observations (t = 1 d @ 20° C.) [1, 26]: Suspension | Observations (t = 0 @ 20° C.) [1, 27]: Suspension | Observations (t = 1 d @ 20° C.) [1, 27]: Suspension | Observations (t = 0 @ 20° C.) [1, 28]: Suspension | Observations (t = 1 d @ 20° C.) [1, 28]: Suspension | Observations (t = 0 @ 20° C.) ([1]; Nitromethane 5.0 vol, equilibration at 20° C.): Suspension | Observations (t = 0 @ 20° C.) [1, 29]: Suspension | Observations (t = 1 d @ 20° C.) [1, 29]: Suspension | Observations (t = 0 @ 20° C.) [1, 30]: Suspension | Observations (t = 1 d @ 20° C.) [1, 30]: Suspension | Observations (t = 10 d @ 20° C.) [1, 30]: White Paste | Observations (t = 0 @ 20° C.) ([1]; THF 5.0 vol, equilibration at 20° C.): Suspension | Observations (t = 0 @ 20° C.) ([1]; THF 5.0 vol, panel at 40° C.): Suspension | Observations (t = 1 d @ 20° C.) ([1]; THF 5.0 vol, panel at 40° C.): Suspension | Observations (t = 0 @ 20° C.) ([1]; Toluene 5.0 vol, equilibration at 20° C.): Suspension | Observations (t = 0 @ 20° C.) [1, 31]: Suspension | Observations (t = 1 d @ 20° C.) [1, 31]: Suspension | Observations (t = 0 @ 20° C.) [1, 32]: Solution | Observations (t = 1 d @ 20° C.) [1, 32]: Solution | Observations (t = 0 @ 20° C.) ([1]; Water 5.0 vol, panel at 40° C.): Solution | Observations (t = 10 d @ 20° C.) ([1]; Water 5.0 vol, panel at 40° C.): Orange susp. | Observations (t = 0 @ 20° C.) ([1]; tBME 5.0 vol, panel at 40° C.): Suspension | Observations (t = 1 d @ 20° C.) ([1]; tBME 5.0 vol, panel at 40° C.): Suspension

COc1ccc2c(ccn2C[C@@H](C)[NH+](C)C)c1.O=C(O)/C=C/C(=O)O [Compound 1 fumarate, (R)-1-(5-methoxy-1H-indol-1-yl)-N,N-dimethylpropan-2-amine fumarate]
Decrease of chemical purity ([2]; 75% RH/40° C., 5 week time point): approximately 2 % area | Stability of the amorphous phase ([2]; 75% RH/40° C., 5 weeks): good stability | Time to turn to an oily residue ([2]; 75% RH/40° C., both conditions (open vial and double bagged)): ≤ 3 h | Preliminary stability evaluation (hydrate formation or degradation) ([2]; several weeks at 40° C./75% RH): no evidence for hydrate formation or degradation | XRPD crystallinity (dry, %) [3, 33]: 83.2% | XRPD crystallinity (wet, %) [3, 33]: 83.4% | XRPD crystallinity (dry, %) [3, 34]: 68.1% | XRPD crystallinity (wet, %) [3, 34]: 52.4% | XRPD crystallinity (dry, %) ([3]; thermocycling in iPAC 100.0%): 82.7% | XRPD crystallinity (wet, %) ([3]; thermocycling in iPAC 100.0%): 80.7% | XRPD crystallinity (dry, %) ([3]; thermocycling in tBME 100.0%): 81.0% | XRPD crystallinity (wet, %) ([3]; thermocycling in tBME 100.0%): 79.0%

Source: patent US12319652B2, “Salts and solid forms of (R)-1-(5-methoxy-1H-indol-1-yl)-N,N-dimethylpropan-2-amine” (priority 2021, dated 2025)
